The results in this text go back to US9617273B2, “Fused tetra or penta-cyclic dihydrodiazepinocarbazolones as PARP inhibitors” (BEIGENE, LTD., priority 2011, dated 2017).

The subject of this assay is PARP PARylation in HeLa cells. Briefly: PARylation assay in HeLa cells. Format: cell-based. Conditions: H2O2-provoked DNA damage.

With “10-(2-hydroxyethyl)-2,2-dimethyl-2,3,5,10-tetrahydro-[1,2]diazepino[3,4,5,6-def]carbazol-6(1H)-one [Compound 67]”, the EC50 (in general, the concentration giving half of the maximal effect) was 0.247 µM.
